Assays:
[1] = target: T1, Thyroid hormone receptor alpha (Homo sapiens, UniProt P10827); assay: Binding affinity of compound was determined against Thyroid hormone receptor alpha1
T1 sequence (P10827 whole entry): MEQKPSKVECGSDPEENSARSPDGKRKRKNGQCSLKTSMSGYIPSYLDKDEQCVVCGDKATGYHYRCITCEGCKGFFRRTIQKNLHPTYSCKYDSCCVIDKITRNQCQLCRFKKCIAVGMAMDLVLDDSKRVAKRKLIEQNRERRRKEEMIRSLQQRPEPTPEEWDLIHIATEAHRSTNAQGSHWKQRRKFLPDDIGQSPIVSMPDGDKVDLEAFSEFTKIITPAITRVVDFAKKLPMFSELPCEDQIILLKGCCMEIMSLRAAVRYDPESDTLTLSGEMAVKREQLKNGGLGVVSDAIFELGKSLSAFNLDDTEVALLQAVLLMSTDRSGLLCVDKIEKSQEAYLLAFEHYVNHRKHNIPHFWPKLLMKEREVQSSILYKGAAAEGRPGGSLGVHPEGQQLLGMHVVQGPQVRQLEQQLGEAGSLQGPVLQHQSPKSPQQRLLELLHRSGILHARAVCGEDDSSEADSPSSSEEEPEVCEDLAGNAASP

[2] = target: T2, Thyroid hormone receptor beta (Homo sapiens, UniProt P10828); assay: Binding affinity of compound was determined against thyroid hormone receptor beta 1
T2 sequence (P10828 whole entry): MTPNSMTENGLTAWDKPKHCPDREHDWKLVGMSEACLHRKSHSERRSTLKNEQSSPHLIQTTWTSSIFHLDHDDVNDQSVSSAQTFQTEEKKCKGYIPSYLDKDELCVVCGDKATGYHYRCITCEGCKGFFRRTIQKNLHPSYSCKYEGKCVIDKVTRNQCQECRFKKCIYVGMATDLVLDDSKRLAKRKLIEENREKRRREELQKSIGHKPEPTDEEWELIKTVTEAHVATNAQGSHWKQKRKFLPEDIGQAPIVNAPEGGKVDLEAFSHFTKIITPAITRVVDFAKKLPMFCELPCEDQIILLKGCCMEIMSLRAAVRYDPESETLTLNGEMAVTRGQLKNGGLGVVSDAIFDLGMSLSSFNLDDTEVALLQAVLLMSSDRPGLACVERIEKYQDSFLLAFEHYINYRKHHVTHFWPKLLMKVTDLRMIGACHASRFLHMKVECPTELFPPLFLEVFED

Row | SMILES | Kd [1] [nM] | Kd [2] [nM]
1 | Cc1cc(OCC(=O)O)cc(C)c1Oc1ccc(O)c(C(C)C)c1 | 2.4 | 0.36
2 | Cc1cc(CCC(=O)O)cc(C)c1Cc1ccc(O)c(C(C)C)c1 | 0.69 | 0.22
3 | Cc1cc(C[C@H](N)C(=O)O)cc(C)c1Oc1ccc(O)c(C(C)C)c1 | 8.5 | 6.2
4 | Cc1cc(C[C@H](N)C(=O)O)cc(C)c1Cc1ccc(O)c(C(C)C)c1 | 2.02 | 1.26

From ChEMBL document CHEMBL1145987, “Structural determinants of selective thyromimetics” (J Med Chem, 2003)
